As usually defined, the logP is the decadic logarithm of the partition coefficient of the neutral form, usually between octanol and water. Low readings indicate lower lipophilicity, high ones higher lipophilicity.

The data set is described as follows: method code SF, from DOI: 10.1016/0045-6535(88)90210-x.
On to `NC(=O)Nc1cccc(O)c1`, for which the lipophilicity (logP) was found to be 0.36.

`Nc1ccc([N+](=O)[O-])cc1[N+](=O)[O-]`: the log partition coefficient (logP) is 1.9.

Regarding `OCCCl`, the lipophilicity (logP) was found to be 0.03.

Compound `OCC(Br)CBr` (stereo not drawn) yielded a log partition coefficient (logP) of 0.9.

Consider `Oc1c(I)cc(I)cc1I`, for which the logP was 4.5.

Compound `CCc1ccccc1N` showed a lipophilicity (logP) of 2.04.

Take `CC(O)CO` (stereo not drawn): the logP is -0.99.

Compound `Cc1ccc(O)c(N)c1` had a logP of 1.11.

As for `CC(C)(C)c1cc(O)cc(C(C)(C)C)c1`, the logP came to 4.64.

Compound `Cc1ccc(N)cc1Cl` returned a logP of 2.4.

Regarding `Cc1ccc(N)c(C)c1`, the lipophilicity (logP) is 2.13.

In turn, `COc1cc(OC)c(Cl)cc1N` came in with a logP of 1.45.

The compound `Oc1cc(Cl)c(Cl)c(Cl)c1Cl` gave a logP of 4.37.

Values taken from the SangsterLogP compilation.
